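Dose response: 5 concentrations. Exposure: 48 h. Format: 96-well plates. Endpoint: linear interpolation; highest concentration if not reached. Here, GI50 denotes the concentration required for 50% inhibition of growth.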 Active and inactive are the calls of the source. Cut-off read from the data, not from the text of the source: active = GI50 up to about 1.1 µM and inactive = higher.

Test systems include OVCAR-4; Hs-578T; T47D; BT-549; KM12; SW-620; OVCAR-8; HCT-116; 786-0; MCF7; EKVX; HCC 2998; NCI-H23; SK-OV-3; Malme-3M; LOX IMVI; MDA-N; SF-295; SNB-75.
Test in all cases: NCI tumour cell line growth inhibition, 48 h

In the case of `Cc1cc2[nH]c3c(C#N)c4c(c(=O)n3c2cc1C)CCCC4`, the GI50 is > 100 µM (inactive) in the experiment on OVCAR-4; 86.1 µM (inactive) in the experiment on Hs-578T; > 100 µM (inactive) with T47D; > 100 µM (inactive) in the experiment on BT-549; > 100 µM (inactive) in the experiment on KM12; > 100 µM (inactive) in the experiment with SW-620. Further, the GI50 in the experiment with OVCAR-8, in the experiment on HCT-116, in the experiment with 786-0, with MCF7, with EKVX and in the experiment on HCC 2998 was > 100 µM (inactive) each time. For the same compound, the GI50 in the experiment on NCI-H23 is > 100 µM (inactive); in the experiment on SK-OV-3 it was 14.1 µM (inactive); with Malme-3M it was > 100 µM (inactive); with LOX IMVI it was > 100 µM (inactive); in the experiment on MDA-N, 87.9 µM (inactive); in the experiment on SF-295, 16 µM (inactive).

For the compound `CCON=C1C(C)(C)C(C)(C)C(C)(C)C1(C)C`, the GI50 with OVCAR-4, with SNB-75, in the experiment with Hs-578T, in the experiment on T47D, in the experiment on BT-549 and in the experiment with KM12 was > 100 µM (inactive) throughout. In addition, the GI50 in the experiment on SW-620, in the experiment with OVCAR-8, in the experiment on HCT-116, with 786-0, in the experiment on MCF7 and in the experiment with EKVX was > 100 µM (inactive) in each case. For the same compound, the GI50 in the experiment with NCI-H23, in the experiment on SK-OV-3, in the experiment with Malme-3M, in the experiment with LOX IMVI, with MDA-N and in the experiment on SF-295 was > 100 µM (inactive) in each case.

On to `CN(C)Cc1cc(C(F)(F)F)ccc1C(O)(c1ccccc1)c1ccccc1`, for which the GI50 with OVCAR-4 is 16.4 µM (inactive); in the experiment on SNB-75, 8.55 µM (inactive); with Hs-578T, 26.9 µM (inactive); with T47D, 18.2 µM (inactive); in the experiment with BT-549 it was > 10 µM (inactive); in the experiment on KM12, 16.9 µM (inactive). The GI50 in the experiment with SW-620 was 17.3 µM (inactive); in the experiment with OVCAR-8, 17.9 µM (inactive); with HCT-116 it was 13 µM (inactive); with 786-0 it was 14.2 µM (inactive); in the experiment on MCF7, 14.3 µM (inactive); with EKVX it was 15.4 µM (inactive). The GI50 is 26.2 µM (inactive) in the experiment on NCI-H23; 17.4 µM (inactive) in the experiment with SK-OV-3; 15.2 µM (inactive) in the experiment with Malme-3M; 15.8 µM (inactive) in the experiment on LOX IMVI; 14.4 µM (inactive) in the experiment with MDA-N; 17.9 µM (inactive) with SF-295.

In the case of `CC12CCC(CC1=O)C2(C)CCC(N)=O` (stereo unspecified), the GI50 in the experiment with OVCAR-4, with Hs-578T, with T47D, in the experiment on BT-549, in the experiment with KM12 and with SW-620 was > 100 µM (inactive) each time. Also, the GI50 in the experiment with OVCAR-8, in the experiment on HCT-116, in the experiment on 786-0, in the experiment on MCF7, with EKVX and with HCC 2998 was > 100 µM (inactive) each time. Also, the GI50 in the experiment on NCI-H23, with SK-OV-3, with Malme-3M, with MDA-N and with SF-295 was > 100 µM (inactive) in each case.

Regarding `COC(=O)C1=C(O)C(C(=O)OC)[C@]2(O)[C@H](C(=O)OC)[C@H]1C[C@@H](c1ccc(OC)c(OC)c1)[C@H]2C(=O)OC` (stereo partly specified), the GI50 in the experiment on OVCAR-4 is 29.6 µM (inactive); in the experiment with SNB-75, 7.8 µM (inactive); with Hs-578T, 29.9 µM (inactive); in the experiment with T47D, 15.9 µM (inactive); in the experiment with BT-549, 16.4 µM (inactive); with KM12, 21.1 µM (inactive). The GI50 in the experiment on SW-620 is 15.6 µM (inactive); in the experiment on OVCAR-8, 13.3 µM (inactive); in the experiment on HCT-116 it was 21 µM (inactive); with 786-0, 39.8 µM (inactive); with MCF7, 17.3 µM (inactive); in the experiment with EKVX, 32.5 µM (inactive). Moreover, the GI50 in the experiment with HCC 2998 was 11.7 µM (inactive); in the experiment on NCI-H23, 19.8 µM (inactive); with SK-OV-3 it was 17.6 µM (inactive); in the experiment on LOX IMVI it was 13.4 µM (inactive); in the experiment on MDA-N, 7.13 µM (inactive); in the experiment on SF-295 it was 17.9 µM (inactive).

With `CC(=O)c1csc2c1C(=O)c1scc(C(C)=O)c1C2=O`, the GI50 is 0.587 µM (active) in the experiment with OVCAR-4; 2.03 µM (inactive) in the experiment with SNB-75; 2.74 µM (inactive) with Hs-578T; 0.323 µM (active) in the experiment with T47D; 1.75 µM (inactive) with BT-549; 1.73 µM (inactive) with KM12. The GI50 was 1.94 µM (inactive) in the experiment with SW-620; 1.54 µM (inactive) in the experiment on OVCAR-8; 2.15 µM (inactive) in the experiment with HCT-116; 2.05 µM (inactive) in the experiment on 786-0; 1.38 µM (inactive) with MCF7; 1.89 µM (inactive) with EKVX. The GI50 in the experiment with NCI-H23 is 1.37 µM (inactive); in the experiment on SK-OV-3, 2.22 µM (inactive); with Malme-3M it was 1.49 µM (inactive); in the experiment on LOX IMVI it was 1.41 µM (inactive); with MDA-N it was 0.176 µM (active); in the experiment with SF-295, 1.66 µM (inactive).

Turning to `Cc1c(CCN2CCOCC2)c(N2CCOCC2)n2c(nc3ccccc32)c1C#N`, the GI50 was > 10 µM (inactive) with OVCAR-4; > 10 µM (inactive) with SNB-75; 3.77 µM (inactive) in the experiment with Hs-578T; > 10 µM (inactive) with T47D; > 10 µM (inactive) in the experiment on BT-549; > 10 µM (inactive) with KM12. For the same compound, the GI50 in the experiment with SW-620 was > 10 µM (inactive); in the experiment with OVCAR-8, > 10 µM (inactive); with HCT-116, > 10 µM (inactive); in the experiment with 786-0 it was 8.95 µM (inactive); in the experiment on MCF7 it was > 10 µM (inactive); with EKVX it was > 10 µM (inactive). For the same compound, the GI50 in the experiment on NCI-H23, in the experiment on SK-OV-3, in the experiment with Malme-3M, in the experiment with LOX IMVI, in the experiment with MDA-N and in the experiment with SF-295 was > 10 µM (inactive) throughout.

For the compound `Cn1ncc2c(Cl)ncnc21`, the GI50 in the experiment on OVCAR-4, in the experiment with SNB-75, in the experiment on Hs-578T, with T47D, with BT-549 and in the experiment on KM12 was > 100 µM (inactive) in each case. For the same compound, the GI50 in the experiment on SW-620, in the experiment with OVCAR-8, in the experiment on HCT-116, in the experiment on 786-0, in the experiment on MCF7 and with EKVX was > 100 µM (inactive) in each case. The GI50 with HCC 2998, with NCI-H23, in the experiment on SK-OV-3, in the experiment with LOX IMVI, in the experiment on MDA-N and in the experiment with SF-295 was > 100 µM (inactive) each time.

As for `NNC(=O)CC(=O)Nc1ccccc1Cl`, the GI50 in the experiment with OVCAR-4, in the experiment on SNB-75, in the experiment with Hs-578T, in the experiment on T47D, in the experiment on BT-549 and with KM12 was > 100 µM (inactive) each time. In addition, the GI50 in the experiment with SW-620, in the experiment with OVCAR-8, in the experiment with HCT-116, in the experiment on 786-0, with MCF7 and in the experiment on EKVX was > 100 µM (inactive) in each case. Moreover, the GI50 in the experiment with NCI-H23, with SK-OV-3, in the experiment on Malme-3M, with LOX IMVI, in the experiment with MDA-N and with SF-295 was > 100 µM (inactive) in each case.

For the compound `COC(=O)C(CCCCN)NC(=O)C(CCCCN)NC(=O)C(CCCCN)NC(C)=O.Cc1ccc(C(=O)Nc2ccc(S(=O)(=O)O)c3cc(S(=O)(=O)O)cc(S(=O)(=O)O)c23)cc1NC(=O)c1cccc(NC(=O)Nc2cccc(C(=O)Nc3cc(C(=O)Nc4ccc(S(=O)(=O)O)c5cc(S(=O)(=O)O)cc(S(=O)(=O)O)c45)ccc3C)c2)c1`, the GI50 with OVCAR-4 is 11.3 µM (inactive); in the experiment on SNB-75, 10.7 µM (inactive); with Hs-578T, > 50 µM (inactive); in the experiment on T47D it was > 50 µM (inactive); in the experiment with BT-549, > 50 µM (inactive); in the experiment on KM12 it was > 50 µM (inactive). Moreover, the GI50 with SW-620, with OVCAR-8, in the experiment with HCT-116, with 786-0, with MCF7 and with HCC 2998 was > 50 µM (inactive) throughout. Further, the GI50 with NCI-H23, in the experiment on SK-OV-3, in the experiment on LOX IMVI, in the experiment on MDA-N and in the experiment with SF-295 was > 50 µM (inactive) in each case.

As for `FC(F)(F)c1cc(N(C2c3ccccc3C=Cc3ccccc32)P(Cl)Cl)cc(C(F)(F)F)c1`, the GI50 with OVCAR-4 is 18.9 µM (inactive); in the experiment with SNB-75, 19.3 µM (inactive); in the experiment on Hs-578T it was 25.5 µM (inactive); in the experiment with T47D, 17.9 µM (inactive); with BT-549 it was 0.706 µM (active); in the experiment on KM12 it was 21.4 µM (inactive). Further, the GI50 in the experiment on SW-620 was 25.4 µM (inactive); in the experiment on OVCAR-8 it was 17.6 µM (inactive); in the experiment with HCT-116, 16.5 µM (inactive); with 786-0 it was 16.8 µM (inactive); in the experiment with MCF7, 20.7 µM (inactive); in the experiment with EKVX it was 17.1 µM (inactive). Moreover, the GI50 with NCI-H23 is 18 µM (inactive); with SK-OV-3, 25.4 µM (inactive); in the experiment with Malme-3M it was 17.5 µM (inactive); with LOX IMVI, 18.5 µM (inactive); with MDA-N it was 22 µM (inactive); with SF-295, 19 µM (inactive).
